Measurements as given in the supplement of paper PMC9663587.

Key:
THZ1 [1] = compound: T1, CN(C)C/C=C/C(=O)Nc1ccc(C(=O)Nc2cccc(Nc3ncc(Cl)c(-c4c[nH]c5ccccc45)n3)c2)cc1 [THZ1]; experiment: GR value, 72 h; higher = faster growth (1 = untreated, <0 = killing);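 further: breast cancer and non-malignant breast epithelial lines, nine half-log doses, viable cells counted by Hoechst and LIVE/DEAD dye imaging versus time-zero plates and DMSO controls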
THZ531 = compound: CN(C)C/C=C/C(=O)Nc1ccc(C(=O)N2CCC[C@@H](Nc3ncc(Cl)c(-c4c[nH]c5ccccc45)n3)C2)cc1 [THZ531]; experiment: as above
Flavopiridol [2] = compound: T2, CN1CC[C@H](c2c(O)cc(O)c3c(=O)cc(-c4ccccc4Cl)oc23)[C@H](O)C1 [Flavopiridol]; experiment: as above
[3] = compound: CC(=O)c1c(C)c2cnc(Nc3ccc(N4CCNCC4)cn3)nc2n(C2CCCC2)c1=O; experiment: as above
THZ1 [4] = compound: T1, THZ1; experiment: increase in dead-cell fraction, 72 h; higher = more death;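 further: breast cancer cell lines in 384-well plates, stained with Hoechst plus LIVE/DEAD far red dye and imaged, cells above an LDR intensity threshold counted dead, Hoechst-negative corpses included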
[5] = compound: CCc1cnn2c(NCc3ccc[n+]([O-])c3)cc(N3CCCC[C@H]3CCO)nc12; experiment: as above
[6] = compound: CCN1CCN(Cc2ccc(Nc3ncc(F)c(-c4cc(F)c5nc(C)n(C(C)C)c5c4)n3)nc2)CC1; experiment: as above
BSJ-03-123 = compound: CC(=O)c1c(C)c2cnc(Nc3ccc(N4CCN(CCOCCOCCOCCNC(=O)COc5cccc6c5C(=O)N(C5CCC(=O)NC5=O)C6=O)CC4)cn3)nc2n(C2CCCC2)c1=O [BSJ-03-123]; experiment: as above
Neratinib/HKI272 = compound: CCOc1cc2ncc(C#N)c(Nc3ccc(OCc4ccccn4)c(Cl)c3)c2cc1NC(=O)/C=C/CN(C)C [Neratinib/HKI272]; experiment: as above
LEE011/Ribociclib = compound: CN(C)C(=O)c1cc2cnc(Nc3ccc(N4CCNCC4)cn3)nc2n1C1CCCC1 [LEE011/Ribociclib]; experiment: as above
Flavopiridol [7] = compound: T2, Flavopiridol; experiment: as above
[8] = compound: CC(=O)c1c(C)c2cnc(Nc3ccc(N4CCNCC4)cn3)nc2n(C2CCCC2)c1=O; experiment: as above

With BT20 the GR value (THZ1 [1]; 0.0001 µM) was 0.946 GR, the GR value (THZ1 [1]; 0.0003162 µM) was 1.04 GR and the GR value (THZ1 [1]; 0.001 µM) was 1 GR. The GR value (THZ1 [1]; 0.003162 µM) was 1.02 GR, the GR value (THZ1 [1]; 0.01 µM) was 1.03 GR and the GR value (THZ1 [1]; 0.03162 µM) was 1.01 GR. The GR value (THZ1 [1]; 0.1 µM) was 1.01 GR, the GR value (THZ1 [1]; 0.3162 µM) was 0.807 GR and the GR value (THZ1 [1]; 1 µM) was -0.409 GR. It also gave a GR value (THZ531; 0.0001 µM) of 1 GR, a GR value (THZ531; 0.0003162 µM) of 0.93 GR and a GR value (THZ531; 0.001 µM) of 0.967 GR. It also gave a GR value (THZ531; 0.003162 µM) of 0.988 GR, a GR value (THZ531; 0.01 µM) of 1.09 GR and a GR value (THZ531; 0.03162 µM) of 1 GR. For the same cell line, the GR value (THZ531; 0.1 µM) was 0.927 GR, the GR value (THZ531; 0.3162 µM) was 0.907 GR and the GR value (THZ531; 1 µM) was 0.647 GR. It also gave a GR value (Flavopiridol [2]; 0.0001 µM) of 0.987 GR, a GR value (Flavopiridol [2]; 0.0003162 µM) of 0.946 GR and a GR value (Flavopiridol [2]; 0.001 µM) of 0.999 GR. The GR value (Flavopiridol [2]; 0.003162 µM) was 0.931 GR, the GR value (Flavopiridol [2]; 0.01 µM) was 0.993 GR and the GR value (Flavopiridol [2]; 0.03162 µM) was 0.835 GR. For the same cell line, the GR value (Flavopiridol [2]; 0.1 µM) was 0.593 GR, the GR value (Flavopiridol [2]; 0.3162 µM) was -0.0024 GR and the GR value (Flavopiridol [2]; 1 µM) was -0.639 GR. For the same cell line, the GR value ([3]; 0.0003162 µM) was 1.07 GR, the GR value ([3]; 0.001 µM) was 1.09 GR and the GR value ([3]; 0.003162 µM) was 0.956 GR. The GR value ([3]; 0.01 µM) was 0.809 GR, the GR value ([3]; 0.03162 µM) was 0.567 GR and the GR value ([3]; 0.1 µM) was 0.36 GR. It also gave a GR value ([3]; 0.3162 µM) of 0.24 GR, a GR value ([3]; 1 µM) of 0.203 GR and a GR value ([3]; 3.162 µM) of 0.156 GR. For the same cell line, the “increase in dead-cell fraction” value (THZ1 [4]; 0.0001 µM) was 0.0002, the “increase in dead-cell fraction” value (THZ1 [4]; 0.0003162 µM) was 0.0003 and the “increase in dead-cell fraction” value (THZ1 [4]; 0.001 µM) was -0.0025. For the same cell line, the “increase in dead-cell fraction” value (THZ1 [4]; 0.003162 µM) was 0.0002, the “increase in dead-cell fraction” value (THZ1 [4]; 0.01 µM) was -0.0011 and the “increase in dead-cell fraction” value (THZ1 [4]; 0.03162 µM) was -0.0033. The “increase in dead-cell fraction” value (THZ1 [4]; 0.1 µM) was -0.0037, the “increase in dead-cell fraction” value (THZ1 [4]; 0.3162 µM) was -0.001 and the “increase in dead-cell fraction” value (THZ1 [4]; 1 µM) was 0.212. For the same cell line, the “increase in dead-cell fraction” value ([5]; 0.0001 µM) was 0.0075, the “increase in dead-cell fraction” value ([5]; 0.0003162 µM) was -0.0076 and the “increase in dead-cell fraction” value ([5]; 0.001 µM) was -0.0014. The “increase in dead-cell fraction” value ([5]; 0.003162 µM) was -0.0106, the “increase in dead-cell fraction” value ([5]; 0.01 µM) was 0.0127 and the “increase in dead-cell fraction” value ([5]; 0.03162 µM) was 0.456. For the same cell line, the “increase in dead-cell fraction” value ([5]; 0.1 µM) was 0.789, the “increase in dead-cell fraction” value ([5]; 0.3162 µM) was 0.803 and the “increase in dead-cell fraction” value ([5]; 1 µM) was 0.827. The “increase in dead-cell fraction” value ([6]; 0.001 µM) was -0.0036, the “increase in dead-cell fraction” value ([6]; 0.003162 µM) was -0.0047 and the “increase in dead-cell fraction” value ([6]; 0.01 µM) was -0.0009. For the same cell line, the “increase in dead-cell fraction” value ([6]; 0.03162 µM) was -0.0044, the “increase in dead-cell fraction” value ([6]; 0.1 µM) was 0.0079 and the “increase in dead-cell fraction” value ([6]; 0.3162 µM) was 0.0034. For the same cell line, the “increase in dead-cell fraction” value ([6]; 1 µM) was 0.0076, the “increase in dead-cell fraction” value ([6]; 3.162 µM) was 0.0117 and the “increase in dead-cell fraction” value ([6]; 10 µM) was 0.363. The “increase in dead-cell fraction” value (BSJ-03-123; 0.001 µM) was -0.0015, the “increase in dead-cell fraction” value (BSJ-03-123; 0.003162 µM) was 0.0071 and the “increase in dead-cell fraction” value (BSJ-03-123; 0.01 µM) was 0.0034. For the same cell line, the “increase in dead-cell fraction” value (BSJ-03-123; 0.03162 µM) was 0.0088, the “increase in dead-cell fraction” value (BSJ-03-123; 0.1 µM) was 0.0041 and the “increase in dead-cell fraction” value (BSJ-03-123; 0.3162 µM) was 0.0071. The “increase in dead-cell fraction” value (BSJ-03-123; 1 µM) was 0.0076, the “increase in dead-cell fraction” value (BSJ-03-123; 3.162 µM) was 0.008 and the “increase in dead-cell fraction” value (BSJ-03-123; 10 µM) was 0.0323. The “increase in dead-cell fraction” value (Neratinib/HKI272; 0.0003162 µM) was -0.0021, the “increase in dead-cell fraction” value (Neratinib/HKI272; 0.001 µM) was -0.0068 and the “increase in dead-cell fraction” value (Neratinib/HKI272; 0.003162 µM) was 0.001. For the same cell line, the “increase in dead-cell fraction” value (Neratinib/HKI272; 0.01 µM) was 0.004, the “increase in dead-cell fraction” value (Neratinib/HKI272; 0.03162 µM) was 0.0258 and the “increase in dead-cell fraction” value (Neratinib/HKI272; 0.1 µM) was 0.0444. The “increase in dead-cell fraction” value (Neratinib/HKI272; 0.3162 µM) was 0.0552, the “increase in dead-cell fraction” value (Neratinib/HKI272; 1 µM) was 0.0626 and the “increase in dead-cell fraction” value (Neratinib/HKI272; 3.162 µM) was 0.169. The “increase in dead-cell fraction” value (LEE011/Ribociclib; 0.001 µM) was 0.002, the “increase in dead-cell fraction” value (LEE011/Ribociclib; 0.003162 µM) was 0.0029 and the “increase in dead-cell fraction” value (LEE011/Ribociclib; 0.01 µM) was 0.0024. The “increase in dead-cell fraction” value (LEE011/Ribociclib; 0.03162 µM) was 0.0037, the “increase in dead-cell fraction” value (LEE011/Ribociclib; 0.1 µM) was 0.0051 and the “increase in dead-cell fraction” value (LEE011/Ribociclib; 0.3162 µM) was 0.0057. For the same cell line, the “increase in dead-cell fraction” value (LEE011/Ribociclib; 1 µM) was 0.0086, the “increase in dead-cell fraction” value (LEE011/Ribociclib; 3.162 µM) was 0.0145 and the “increase in dead-cell fraction” value (LEE011/Ribociclib; 10 µM) was 0.0266. For the same cell line, the “increase in dead-cell fraction” value (Flavopiridol [7]; 0.0001 µM) was 0.0067, the “increase in dead-cell fraction” value (Flavopiridol [7]; 0.0003162 µM) was 0.0031 and the “increase in dead-cell fraction” value (Flavopiridol [7]; 0.001 µM) was -0.001. For the same cell line, the “increase in dead-cell fraction” value (Flavopiridol [7]; 0.003162 µM) was -0.0003, the “increase in dead-cell fraction” value (Flavopiridol [7]; 0.01 µM) was 0.0003 and the “increase in dead-cell fraction” value (Flavopiridol [7]; 0.03162 µM) was 0.0115. The “increase in dead-cell fraction” value (Flavopiridol [7]; 0.1 µM) was 0.0027, the “increase in dead-cell fraction” value (Flavopiridol [7]; 0.3162 µM) was 0.0458 and the “increase in dead-cell fraction” value (Flavopiridol [7]; 1 µM) was 0.637. For the same cell line, the “increase in dead-cell fraction” value ([8]; 0.0003162 µM) was -0.0052, the “increase in dead-cell fraction” value ([8]; 0.001 µM) was -0.006 and the “increase in dead-cell fraction” value ([8]; 0.003162 µM) was 0.0023. The “increase in dead-cell fraction” value ([8]; 0.01 µM) was 0.0093, the “increase in dead-cell fraction” value ([8]; 0.03162 µM) was 0.0193 and the “increase in dead-cell fraction” value ([8]; 0.1 µM) was 0.0353. The “increase in dead-cell fraction” value ([8]; 0.3162 µM) was 0.0479, the “increase in dead-cell fraction” value ([8]; 1 µM) was 0.0439 and the “increase in dead-cell fraction” value ([8]; 3.162 µM) was 0.0468.
